Assays:
hNET [1] = target: T1, hNET (Homo sapiens, UniProt P23975); assay: hNET membrane radioligand binding assay (3H-nisoxetine), Assay 1
hSERT [2] = target: T2, hSERT (Homo sapiens, UniProt P31645); assay: hSERT neurotransmitter uptake assay (3H-5-HT), Assay 2; type: cell-based; design: expressed in transfected cells; host or cells: HEK-293; details: serotonin reuptake inhibition, 3H-5-HT uptake, HEK-293 hSERT cells (values without asterisk); read-out: SERT pIC50 (converted)
hSERT [3] = target: T2, hSERT; assay: hSERT membrane radioligand binding assay (3H-citalopram), Assay 1; details: SERT pKi, hSERT HEK-293 membranes, 1.0 nM 3H-citalopram; values given as lower bounds
Experimental: Membrane radioligand binding assays were used to measure inhibition of labeled ligand (^3H-citalopram or ^3H-nisoxetine or ^3H-WIN35428) binding to membranes prepared from cells expressing the respective human recombinant transporter (hSERT or hNET or hDAT) in order to determine the pKi values of test compounds at the transporters.
Recombinant human embryonic kidney (HEK-293) derived cell lines stably transfected with hSERT or hNET, respectively, were grown in DMEM medium supplemented with 10% dialyzed FBS (for hSERT) or FBS (for hNET), 100 μg/mL penicillin, 100 μg/mL streptomycin, 2 mM L-glutamine and 250 μg/mL of the aminoglycoside antibiotic G418, in a 5% CO2 humidified incubator at 37° C. When cultures reached 80% confluence, the cells were washed thoroughly in PBS (without Ca^2+ and Mg^2+) and lifted with 5 mM EDTA in PBS. Cells were pelleted by centrifugation, resuspended in lysis buffer (10 mM Tris-HCl, pH7.5 containing 1 mM EDTA), homogenized, pelleted by centrifugation, then resuspended in 50 mM Tris-HCl, pH 7.5 and 10% sucrose at 4° C. Protein concentration of the membrane suspension was determined using a Bio-Rad Bradford Protein Assay kit. Membranes were snap frozen and stored at −80° C.
Binding assays were performed in a 96-well assay plate in a total volume of 200 μl assay buffer (50 mM Tris-HCl, 120 mM NaCl, 5 mM KCl, pH 7.4) with 0.5, 1, and 3 μg membrane protein, for SERT, NET and DAT, respectively.
Stock solutions (10 mM in DMSO) of test compound were prepared and serial dilutions made using Dilution Buffer (50 mM Tris-HCl, 120 mM NaCl, 5 mM KCl, pH 7.4, 0.1% BSA, 400 μM ascorbic acid).
Following a 60 minute incubation at 22° C. (or a period sufficient to reach equilibrium), the membranes were harvested by rapid filtration over a 96-well UniFilter GF/B plate, pretreated with 0.3% polyethyleneimine, and washed 6 times with 300 μl wash buffer (50 mM Tris-HCl, 0.9% NaCl, pH 7.5 at 4° C.). Plates were dried overnight at room temperature, approximately 45 μl of MicroScint™-20 (Perkin Elmer) added and bound radioactivity quantitated via liquid scintillation spectroscopy. Inhibition curves and saturation isotherms were analyzed using GraphPad Prism Software package (GraphPad Software, Inc., San Diego, Calif.). IC50 values were generated from concentration response curves using the Sigmoidal Dose Response (variable slope) algorithm in Prism GraphPad.

hNET [4] = target: T1, hNET; assay: hNET neurotransmitter uptake assay (3H-NE), Assay 2; type: cell-based; design: expressed in transfected cells; host or cells: HEK-293; details: norepinephrine reuptake inhibition, 3H-NE uptake, HEK-293 hNET cells (values without asterisk); read-out: NET pIC50 (converted)

T1 sequence (P23975 whole entry): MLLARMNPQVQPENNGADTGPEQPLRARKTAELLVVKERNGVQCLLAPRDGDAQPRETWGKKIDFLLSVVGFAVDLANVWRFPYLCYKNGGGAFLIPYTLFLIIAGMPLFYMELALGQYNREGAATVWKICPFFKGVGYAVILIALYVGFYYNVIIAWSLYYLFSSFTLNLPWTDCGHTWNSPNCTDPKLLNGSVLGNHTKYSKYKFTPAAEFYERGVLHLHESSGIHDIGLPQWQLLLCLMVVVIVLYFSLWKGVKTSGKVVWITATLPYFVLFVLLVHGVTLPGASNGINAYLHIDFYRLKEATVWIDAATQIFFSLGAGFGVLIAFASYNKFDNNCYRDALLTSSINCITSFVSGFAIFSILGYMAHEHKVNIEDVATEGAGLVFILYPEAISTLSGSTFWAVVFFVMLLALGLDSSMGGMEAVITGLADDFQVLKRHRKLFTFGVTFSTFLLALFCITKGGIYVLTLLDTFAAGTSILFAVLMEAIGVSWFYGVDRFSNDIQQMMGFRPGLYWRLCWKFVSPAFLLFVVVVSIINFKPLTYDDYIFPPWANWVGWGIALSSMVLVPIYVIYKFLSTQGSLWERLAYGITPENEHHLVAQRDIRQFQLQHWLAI
T2 sequence (P31645 whole entry): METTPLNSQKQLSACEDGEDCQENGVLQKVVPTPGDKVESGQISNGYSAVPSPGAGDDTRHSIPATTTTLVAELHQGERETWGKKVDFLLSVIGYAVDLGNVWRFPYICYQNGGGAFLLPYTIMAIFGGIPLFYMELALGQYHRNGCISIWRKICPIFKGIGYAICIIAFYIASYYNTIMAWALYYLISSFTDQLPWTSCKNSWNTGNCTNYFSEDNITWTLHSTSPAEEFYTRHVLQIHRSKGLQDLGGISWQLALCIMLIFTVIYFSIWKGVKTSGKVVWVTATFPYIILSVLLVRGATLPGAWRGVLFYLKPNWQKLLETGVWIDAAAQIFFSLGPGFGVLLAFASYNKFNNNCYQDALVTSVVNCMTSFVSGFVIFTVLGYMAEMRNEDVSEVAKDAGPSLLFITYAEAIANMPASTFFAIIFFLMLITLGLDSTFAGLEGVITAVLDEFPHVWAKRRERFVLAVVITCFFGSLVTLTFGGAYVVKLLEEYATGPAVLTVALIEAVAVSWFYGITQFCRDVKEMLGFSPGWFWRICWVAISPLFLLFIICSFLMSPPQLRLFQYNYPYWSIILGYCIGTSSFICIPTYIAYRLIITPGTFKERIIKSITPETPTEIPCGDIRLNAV

Structure (SMILES) | Ki (hNET [1]) | IC50 (hSERT [2]) | Ki (hSERT [3]) | IC50 (hNET [4])
CC(C)C[C@H](Oc1cc(F)cc(Cl)c1)[C@H]1CCNC1 [Example 10-81, (S)-3-[(S)-1-(3-Chloro-5-fluorophenoxy)-3-methylbutyl]pyrrolidine] | ≤ 10 nM | ≤ 10 nM | ≤ 10 nM | ≤ 10 nM
CC(C)CC(Oc1cc(F)cc(Cl)c1)C1CCNC1 (stereo not shown) [Example 10-82, 3-[1-(3-Chloro-5-fluorophenoxy)-3-methylbutyl]pyrrolidine] | ≤ 10 nM | ≤ 10 nM | ≤ 10 nM | ≤ 10 nM
CC(C)C[C@H](Oc1c(F)c(F)cc(F)c1Cl)[C@H]1CCNC1 [Example 10-86, (S)-3-[(S)-1-(2-Chloro-3,5,6-trifluorophenoxy)-3-methylbutyl]pyrrolidine] | ≤ 10 nM | ≤ 10 nM | ≤ 10 nM | ≤ 10 nM
CCC[C@@H](Oc1cccc2ccccc12)[C@H]1CCNC1 [Example 14-2, (S)-3-[(R)-1-(Naphthalen-1-yloxy)butyl]pyrrolidine] | ≤ 10 nM | ≤ 10 nM | ≤ 10 nM | ≤ 10 nM
CCC[C@H](Oc1cccc2ccccc12)[C@H]1CCNC1 [Example 14-3, (S)-3-[(S)-1-(Naphthalen-1-yloxy)butyl]pyrrolidine] | ≤ 10 nM | ≤ 10 nM | ≤ 10 nM | ≤ 10 nM
Cc1ccccc1O[C@@H](C1CC1)[C@H]1CCNC1 [Example 16-3, (S)-3-((S)cyclopropyl-o-tolyloxymethyl)pyrrolidine] | ≤ 10 nM | ≤ 316 nM | ≤ 100 nM | ≤ 10 nM
Clc1cccc(O[C@H](C2CC2)[C@H]2CCNC2)c1Cl [Example 16-7, (S)-3-[(R)cyclopropyl-(2,3-dichlorophenoxy)methyl]pyrrolidine] | ≤ 10 nM | ≤ 10 nM | ≤ 10 nM | ≤ 10 nM
Fc1cccc(O[C@@H](C2CC2)[C@H]2CCNC2)c1Cl [Example 16-9, (S)-3-[(S)-(2-Chloro-3-fluorophenoxy)cyclopropylmethyl]pyrrolidine] | ≤ 10 nM | ≤ 100 nM | ≤ 10 nM | ≤ 10 nM
Fc1cccc(O[C@H](C2CC2)[C@H]2CCNC2)c1Cl [Example 16-10, (S)-3-[(R)-(2-Chloro-3-fluorophenoxy)cyclopropylmethyl]pyrrolidine] | ≤ 10 nM | ≤ 100 nM | ≤ 10 nM | ≤ 100 nM
FC(F)(F)c1c(Cl)cccc1O[C@@H](C1CC1)[C@H]1CCNC1 [Example 16-16, (S)-3-[(S)-(3-Chloro-2-trifluoromethylphenoxy)cyclopropylmethyl]pyrrolidine] | ≤ 10 nM | ≤ 10 nM | ≤ 10 nM | ≤ 10 nM
Clc1ccc(O[C@@H](C2CC2)[C@H]2CCNC2)c(Cl)c1 [Example 16-19, (S)-3-[(S)cyclopropyl-(2,4-dichlorophenoxy)methyl]pyrrolidine] | ≤ 10 nM | ≤ 10 nM | ≤ 10 nM | ≤ 10 nM
Cc1ccc(O[C@@H](C2CC2)[C@H]2CCNC2)c(C)c1 [Example 16-28, (S)-3-[(S)cyclopropyl-(2,4-dimethylphenoxy)-methyl]pyrrolidine] | ≤ 10 nM | ≤ 10 nM | ≤ 10 nM | ≤ 10 nM
Cc1ccc(O[C@H](C2CC2)[C@H]2CCNC2)c(F)c1F [Example 16-51, (S)-3-[(R)cyclopropyl-(2,3-difluoro-4-methylphenoxy)methyl]pyrrolidine] | ≤ 10 nM | ≤ 10 nM | ≤ 10 nM | ≤ 10 nM
COc1c(O[C@@H](C2CC2)[C@H]2CCNC2)ccc(Cl)c1Cl [Example 16-55, (S)-3-[(S)cyclopropyl-(3,4-dichloro-2-methoxyphenoxy)methyl]pyrrolidine] | ≤ 10 nM | ≤ 10 nM | ≤ 10 nM | ≤ 10 nM
Clc1ccc(Cl)c(O[C@@H](C2CC2)[C@H]2CCNC2)c1Cl [Example 16-58, (S)-3-[(S)cyclopropyl-(2,3,6-trichlorophenoxy)methyl]pyrrolidine] | ≤ 10 nM | ≤ 100 nM | ≤ 10 nM | ≤ 10 nM
Fc1ccc(F)c(O[C@@H](C2CC2)[C@H]2CCNC2)c1Cl [Example 16-61, (S)-3-[(S)-(2-Chloro-3,6-difluorophenoxy)cyclopropylmethyl]pyrrolidine] | ≤ 10 nM | ≤ 100 nM | ≤ 10 nM | ≤ 10 nM
COc1ccc(F)c(O[C@H](C2CC2)[C@H]2CCNC2)c1Cl [Example 16-65, (S)-3-[(R)-(2-Chloro-6-fluoro-3-methoxyphenoxy)cyclopropylmethyl]pyrrolidine] | ≤ 10 nM | ≤ 10 nM | ≤ 10 nM | ≤ 10 nM
Cc1cc(Cl)cc(Cl)c1O[C@@H](C1CC1)[C@H]1CCNC1 [Example 16-77, (S)-3-[(S)cyclopropyl-(2,4-dichloro-6-methylphenoxy)methyl]pyrrolidine] | ≤ 10 nM | ≤ 10 nM | ≤ 10 nM | ≤ 100 nM
Fc1cc(Cl)cc(F)c1O[C@@H](C1CC1)[C@H]1CCNC1 [Example 16-79, (S)-3-[(S)-(4-Chloro-2,6-difluorophenoxy)cyclopropylmethyl]pyrrolidine] | ≤ 10 nM | ≤ 10 nM | ≤ 10 nM | ≤ 10 nM

Now from value to compound:

Ki (hNET [1]) | IC50 (hSERT [2]) | Ki (hSERT [3]) | IC50 (hNET [4]) | Structure (SMILES)
≤ 10 nM | ≤ 10 nM | ≤ 10 nM | ≤ 10 nM | CC(C)CC(Oc1c(Cl)c(F)cc(F)c1Cl)C1CCNC1 (stereo not shown) [Example 10-84, 3-[1-(2,6-Dichloro-3,5-difluorophenoxy)-3-methylbutyl]pyrrolidine]
≤ 10 nM | ≤ 10 nM | ≤ 10 nM | ≤ 10 nM | CC[C@H](Oc1cccc2ccccc12)[C@H]1CCNC1 [Example 13, (S)-3-[(s)-1-(Naphthalen-1-yloxy)propyl]pyrrolidine]
≤ 10 nM | ≤ 10 nM | ≤ 10 nM | ≤ 10 nM | CC[C@@H](Oc1cccc2ccccc12)[C@H]1CCNC1 [Example 14-1, (S)-3-[(R)-1-(Naphthalen-1-yloxy)propyl]pyrrolidine]
≤ 10 nM | ≤ 10 nM | ≤ 10 nM | ≤ 10 nM | CC(C)[C@H](Oc1cccc2ccccc12)[C@H]1CCNC1 [Example 14-5, (S)-3-[(S)-2-Methyl-1-(naphthalen-1-yloxy)propyl]pyrrolidine]
≤ 10 nM | ≤ 10 nM | ≤ 10 nM | ≤ 10 nM | Clc1cccc(O[C@@H](C2CC2)[C@H]2CCNC2)c1Cl [Example 16-8, (S)-3-[(S)cyclopropyl-(2,3-dichlorophenoxy)methyl]pyrrolidine]
≤ 10 nM | ≤ 100 nM | ≤ 10 nM | ≤ 10 nM | Fc1ccc(O[C@@H](C2CC2)[C@H]2CCNC2)c(Cl)c1 [Example 16-22, (S)-3-[(S)-(2-Chloro-4-fluorophenoxy)cyclopropylmethyl]pyrrolidine]
≤ 10 nM | ≤ 10 nM | ≤ 10 nM | ≤ 10 nM | Cc1ccc(O[C@@H](C2CC2)[C@H]2CCNC2)c(Cl)c1 [Example 16-23, (S)-3-[(S)-(2-Chloro-4-methylphenoxy)cyclopropylmethyl]pyrrolidine]
≤ 10 nM | ≤ 10 nM | ≤ 10 nM | ≤ 10 nM | Cc1ccc(O[C@@H](C2CC2)[C@H]2CCNC2)c(Br)c1 [Example 16-25, (S)-3-[(S)-(2-Bromo-4-methylphenoxy)cyclopropylmethyl]pyrrolidine]
≤ 10 nM | ≤ 10 nM | ≤ 10 nM | ≤ 10 nM | Cc1cc(Cl)ccc1O[C@@H](C1CC1)[C@H]1CCNC1 [Example 16-29, (S)-3-[(S)-(4-Chloro-2-methylphenoxy)cyclopropylmethyl]pyrrolidine]
≤ 10 nM | ≤ 100 nM | ≤ 100 nM | ≤ 10 nM | CCc1cc(F)ccc1O[C@H](C1CC1)[C@H]1CCNC1 [Example 16-33, (S)-3-[(R)cyclopropyl-(2-ethyl-4-fluorophenoxy)-methyl]pyrrolidine]
≤ 10 nM | ≤ 10 nM | ≤ 10 nM | ≤ 10 nM | CCc1cc(F)ccc1O[C@@H](C1CC1)[C@H]1CCNC1 [Example 16-34, (S)-3-[(S)cyclopropyl-(2-ethyl-4-fluorophenoxy)-methyl]pyrrolidine]
≤ 10 nM | ≤ 10 nM | ≤ 10 nM | ≤ 10 nM | COc1cc(Cl)ccc1O[C@@H](C1CC1)[C@H]1CCNC1 [Example 16-37, (S)-3-[(S)-(4-Chloro-2-methoxyphenoxy)cyclopropylmethyl]pyrrolidine]
≤ 10 nM | ≤ 10 nM | ≤ 10 nM | ≤ 100 nM | COc1cc(Cl)ccc1O[C@H](C1CC1)[C@H]1CCNC1 [Example 16-38, (S)-3-[(R)-(4-Chloro-2-methoxyphenoxy)cyclopropylmethyl]pyrrolidine]
≤ 10 nM | ≤ 316 nM | ≤ 100 nM | ≤ 10 nM | Clc1cccc(Cl)c1O[C@@H](C1CC1)[C@H]1CCNC1 [Example 16-44, (S)-3-[(S)cyclopropyl-(2,6-dichlorophenoxy)-methyl]pyrrolidine]
≤ 10 nM | ≤ 10 nM | ≤ 10 nM | ≤ 10 nM | Fc1cc(Cl)cc(Cl)c1O[C@H](C1CC1)[C@H]1CCNC1 [Example 16-76, (S)-3-[(R)cyclopropyl-(2,4-dichloro-6-fluorophenoxy)methyl]pyrrolidine]

— US7994209B2, “3-phenoxymethylpyrrolidine compounds” (Theravance, Inc., priority 2009, dated 2011)
